Data reported in patent US20080254106A1 (SWITCH BIOTECH AG, priority 2004, published 2008).

Assays:
[1] = test system: cholinergic system; details: cited from earlier work
[2] = test system: HaCaT keratinocytes; test: Proliferation of HaCaT keratinocytes (BrDU incorporation); format: cell-based; details: Homo sapiens, 48 hours treatment, relative to FCS stimulated positive control, mean of at least four experiments
Protocol: As a negative control cells were incubated with KBM.
For this purpose 5×10^3 HaCaT keratinocytes were seeded into 60 wells of a 96 well-plate in 200 μl KBM/10% FCS each and incubated for 24 hours at 37° C. […] At the end of the second incubation period the medium was removed and cell proliferation was determined by BrDU incorporation (Roche, #1 669 915) according to the manufacturer's instructions. […] All other values were divided by the 100% value to obtain the relative percentage of proliferation. […] At least four independent experiments were performed.

[3] = DTH (oxazolone) mouse ear swelling model; format: in vivo; details: topical 4%, 1%, 0.1% and 0.01% in acetone/olive oil, compared to placebo control
Protocol: A mixture of acetone/olive oil (4:1 vol/vol) is used as vehicle. Ear thickness is measured before start of the treatment (day 0), before challenge (day 6), and 24 h after challenge (d7, ear swelling response) (instrumentation e.g. Mitutoyo-Messgeräte GmbH). In addition, at the end of the experiment ear weights are determined by weighing 8 mm punch biopsies taken from both ears of each individual animal.

[4] = test system: TNFα; test: Secretion of TNFα of LPS stimulated THP-1 cells (ELISA); format: cell-based; details: 50 ng/ml LPS, six hours, concentration of 10 μmol/l and higher
Protocol: After stimulation with 50 ng/ml LPS the release of TNFα was determined.
After 2 h cells were stimulated with 50 ng/ml LPS. Six hours after LPS addition, culture supernatants were collected. TNFα concentrations were measured using an enzyme linked immunosorbent assay according to manufacturers protocol (R&D systems, #DTA00C). The TNFα concentrations reached after LPS stimulation without further treatment was set to 100%.

[5] = test system: dopaminergic system; details: cited from earlier work
[6] = target: T1, monoamine oxidase A (Homo sapiens, UniProt P21397); details: proposed mechanism of action; cited from earlier work
T1 sequence (P21397 1-527): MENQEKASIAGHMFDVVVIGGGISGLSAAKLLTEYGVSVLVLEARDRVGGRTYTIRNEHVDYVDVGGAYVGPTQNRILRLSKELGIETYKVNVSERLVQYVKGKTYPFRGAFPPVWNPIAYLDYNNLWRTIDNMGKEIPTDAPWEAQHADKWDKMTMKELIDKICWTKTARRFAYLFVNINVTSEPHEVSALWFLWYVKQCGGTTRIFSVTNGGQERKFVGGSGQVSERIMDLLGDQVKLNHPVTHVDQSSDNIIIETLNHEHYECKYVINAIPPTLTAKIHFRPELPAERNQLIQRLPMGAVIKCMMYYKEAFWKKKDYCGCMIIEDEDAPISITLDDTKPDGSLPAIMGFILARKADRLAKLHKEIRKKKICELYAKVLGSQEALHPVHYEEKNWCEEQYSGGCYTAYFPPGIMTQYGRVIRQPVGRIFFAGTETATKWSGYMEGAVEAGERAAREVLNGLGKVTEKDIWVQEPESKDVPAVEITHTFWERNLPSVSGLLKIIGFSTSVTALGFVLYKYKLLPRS

[7] = test system: 5-hydroxytryptamine reuptake; details: cited from earlier work
[8] = test system: noradrenaline reuptake; details: cited from earlier work
[9] = test system: transplanted human psoriatic skin biopsies; test: Human psoriatic skin transplant SCID mouse model; format: in vivo, SCID mice; details: 50 mg/kg daily intraperitoneal, four weeks, in comparison to vehicle control animals
Protocol: SCID mice were transplanted with human psoriatic skin biopsies. Two weeks after surgery therapy started. […] After four weeks of therapy the mice were sacrificed and biopsies were taken. 4 μm slices of the biopsies were stained with Masson trichrom. Epidermal areas were calculated. […] Treatment started two weeks after the transplantation. […] For therapy, 300 μl of a 5 mg/ml solution was daily injected intraperitonally (=50 mg/kg). The control group was injected in the same way with 300 μl vehicle. After four weeks the animals were sacrificed. The biopsies were removed, histologically stained (Masson trichrom) and examined for changes of the epidermal area.

[10] = test system: α-CD3 stimulated peripheral blood mononuclear cells; test: Proliferation of anti-CD3 stimulated PBMCs/T cells ([3H]-thymidine incorporation); format: cell-based
Protocol: Peripheral blood mononuclear cells (PBMCs) were isolated by Ficoll-gradient centrifugation from peripheral blood. 1×10^6 PBMCs/ml were re-suspended in RPMI/10% fetal calf serum (FCS) in 96-well plates in a concentration of 2×10^5 cells/well. […] As positive and negative controls PBMCs were used, which were stimulated by anti-CD3-antibody and non-stimulated PBMCs, respectively. The final concentration of the solvent DMSO was 0.1% in all examined wells. After two further days of incubation the cells were incubated with 1 μCi per well [^3H]-thymidine for 18 hours. The cells were then recovered on glass fibre filters by using a Micro 96 Harvester (Skatron Instruments, Lier, Norway). The incorporated radioactivity was analysed with a Packard Matrix 9600 Counter (Can berra Packard, Schwadorf, Austria). The experiments were carried out with the blood of three different donors. […] All other values were divided by the 100% value to obtain the relative percentage of proliferation.

Structure (SMILES): Cc1ccc2c(c1)c1c3n2CCNC3CCC1 (centres unmarked) [Pirlindole, 2,3,3a,4,5,6-hexahydro-8-methyl-1H-pyrazino[3,2,1-jk]carbazole]
- Effect on the cholinergic system [1]: no effect
- IC50 [2]: 47 µM
- Parameters of inflammation severity (ear weight, ear thickness) [3]: improvement of one or more parameters of inflammation severity
- Release of TNFα [4]: clear inhibition
- Effect on the dopaminergic system [5]: no effect
- Inhibition of monoamine oxidase A [6]: selective and reversible inhibition
- Effect on 5-hydroxytryptamine reuptake [7]: inhibitory effect
- Effect on noradrenaline reuptake [8]: inhibitory effect
- Epidermal area of the transplants [9]: clearly decreased
- IC50 ([10]; PBMC, 10 μg/ml soluble anti-CD3-antibody, [3H]-thymidine, three donors, mean): 16 µM
- Inhibitory effect on proliferation in vitro ([10]; at a concentration of Pirlindole of 10 μmol/l (examples 2, 3)): inhibitory effect
